Experimental data reported in patent US9161893B2, “Use, as antidandruff agent, of (ethoxyhydroxyphenyl) alkyl ketone or ethoxyhydroxyalkylphenol compounds” (L'OREAL, priority 2011, dated 2015).

What was measured:
Malassezia globosa = assay: Antifungal growth inhibition on MLNA agar, scored against growth control; assay type: cell-based; settings: for Inhibition score Malassezia globosa: MLNA agar, at least 5 days at 30° C.
Description: (§1) A solution containing 2% by weight of test compound is prepared in “modified Leeming and Notman liquid (MLNA)” in the following way: 0.2048 g of test compound is weighed out into qs for 10 ml of modified Leeming and Notman liquid; solubilization is carried out by heating and the use of ultrasound. The solutions of test product are twice as concentrated as the final test concentration, in order to take into account the dilution when they are brought into contact with the Malassezia suspension. One of the previously prepared solutions at 2% is diluted to ½ in modified Leeming and Notman liquid, so as to finally obtain a test concentration of 0.5%; the other solution is used as it is (at 2%) so as to finally obtain a test concentration of 1%. The Malassezia strains are brought into contact according to the table below: [table] The mixture is stirred and deposited at the surface of the MLNA agar. It is spread, with a sterile scraper, over the entire surface before recovering the excess. It is left to incubate for at least 5 days at 30° C. The antifungal effect of the compound is evaluated via the absence of growth of the Malassezia strain tested. This inhibition is evaluated relative to the growth control. The inhibitions are scored from 0 to 3 via assessment of the density of the culture at the surface of the agar, in comparison with the growth control, in the following way: [table]

Malassezia restricta = assay: as above; assay type: cell-based; settings: for Inhibition score Malassezia restricta: MLNA agar, at least 5 days at 30° C.
Description: as §1

## CCOc1cc(CCC(C)=O)ccc1O [Compound tested]
Malassezia globosa; compound at 0.5%
  Growth inhibition of Malassezia globosa (in words): weakly
Malassezia globosa; compound at 1%
  Growth inhibition of Malassezia globosa (in words): completely inhibits the growth
Malassezia globosa; test concentration 0.5%
  Inhibition score Malassezia globosa: 1 (25% Growth < in the control dish)
Malassezia globosa; test concentration 1%
  Inhibition score Malassezia globosa: 3 (100% No growth)
Malassezia restricta; compound at 0.5%
  Growth inhibition of Malassezia restricta (in words): very effective
Malassezia restricta; compound at 1%
  Growth inhibition of Malassezia restricta (in words): completely inhibits the growth
Malassezia restricta; test concentration 0.5%
  Inhibition score Malassezia restricta: 3 (100% No growth)
Malassezia restricta; test concentration 1%
  Inhibition score Malassezia restricta: 3 (100% No growth)
